In patent publication US5714615A (priority 1994, dated 1998):
Entries after “also recorded” stand apart in the source; their conditions may differ.

Legend:
[1] = molecular target: nicotinic receptor (Rattus norvegicus, UniProt P09483+P12390); test: biochemical; format: binding
[2] = test system: DMTS performance; conditions: monkey, in vivo; cited from earlier work
[3] = mouse, in vivo
[4] = test system: AChE; format: biochemical, electric eel and human
[5] = test system: GA; set-up: species or system Male ICR mice; conditions: mouse, in vivo
[6] = molecular target: human erythrocyte AChE (Homo sapiens, UniProt P22303); format: biochemical
Sequence of human erythrocyte AChE (P22303-2 with tags, fused parts or gaps limits assumed): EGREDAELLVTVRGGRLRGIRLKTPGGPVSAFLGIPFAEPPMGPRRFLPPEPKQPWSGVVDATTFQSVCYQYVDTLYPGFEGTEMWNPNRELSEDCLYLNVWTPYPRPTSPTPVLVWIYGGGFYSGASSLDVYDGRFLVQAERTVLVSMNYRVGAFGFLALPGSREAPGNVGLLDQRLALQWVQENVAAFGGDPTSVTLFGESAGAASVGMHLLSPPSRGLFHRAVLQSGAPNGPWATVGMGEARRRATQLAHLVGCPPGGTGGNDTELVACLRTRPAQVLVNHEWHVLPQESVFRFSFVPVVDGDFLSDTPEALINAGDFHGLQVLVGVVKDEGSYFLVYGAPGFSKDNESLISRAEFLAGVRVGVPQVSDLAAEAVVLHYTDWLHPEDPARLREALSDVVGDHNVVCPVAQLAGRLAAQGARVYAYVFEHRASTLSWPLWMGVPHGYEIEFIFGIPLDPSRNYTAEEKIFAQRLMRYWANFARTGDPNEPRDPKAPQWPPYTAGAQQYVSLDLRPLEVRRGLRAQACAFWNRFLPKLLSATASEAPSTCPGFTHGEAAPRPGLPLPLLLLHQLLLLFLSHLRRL

[7] = in vivo; conditions: mouse, po
[8] = molecular target: electric eel AChE (Electrophorus electricus, UniProt O42275); format: biochemical
Sequence of electric eel AChE (O42275 24-633): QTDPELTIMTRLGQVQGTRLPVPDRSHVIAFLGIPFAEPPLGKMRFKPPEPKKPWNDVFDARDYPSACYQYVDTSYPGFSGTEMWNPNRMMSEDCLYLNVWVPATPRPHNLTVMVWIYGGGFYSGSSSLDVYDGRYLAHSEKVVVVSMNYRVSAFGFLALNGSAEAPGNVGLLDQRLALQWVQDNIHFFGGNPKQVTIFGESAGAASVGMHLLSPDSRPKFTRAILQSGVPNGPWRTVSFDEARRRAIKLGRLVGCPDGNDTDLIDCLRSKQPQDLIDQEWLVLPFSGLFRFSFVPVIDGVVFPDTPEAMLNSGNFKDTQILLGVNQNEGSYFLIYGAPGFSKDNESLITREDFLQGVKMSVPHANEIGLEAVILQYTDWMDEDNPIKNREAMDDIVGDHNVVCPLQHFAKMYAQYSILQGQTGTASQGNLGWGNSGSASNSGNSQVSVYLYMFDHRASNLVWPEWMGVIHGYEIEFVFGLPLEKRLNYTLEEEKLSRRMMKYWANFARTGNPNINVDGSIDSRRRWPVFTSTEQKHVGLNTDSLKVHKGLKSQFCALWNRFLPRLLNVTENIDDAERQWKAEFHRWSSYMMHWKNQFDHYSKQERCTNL

[9] = molecular target: T1, electric eel acetylcholinesterase (Electrophorus electricus, UniProt O42275); format: biochemical; conditions: 0.1m phosphate buffer
T1 sequence (O42275 24-633): as above

[10] = molecular target: human erythrocyte acetylcholinesterase (Homo sapiens, UniProt P22303); format: biochemical; conditions: erythrocyte ache
Sequence of human erythrocyte acetylcholinesterase (P22303-2 with tags, fused parts or gaps limits assumed): as the sequence (P22303-2 with tags, fused parts or gaps limits assumed) above

[11] = molecular target: T1, electric eel acetylcholinesterase; conditions: cited from earlier work

Sequence of nicotinic receptor (P12390 25-500): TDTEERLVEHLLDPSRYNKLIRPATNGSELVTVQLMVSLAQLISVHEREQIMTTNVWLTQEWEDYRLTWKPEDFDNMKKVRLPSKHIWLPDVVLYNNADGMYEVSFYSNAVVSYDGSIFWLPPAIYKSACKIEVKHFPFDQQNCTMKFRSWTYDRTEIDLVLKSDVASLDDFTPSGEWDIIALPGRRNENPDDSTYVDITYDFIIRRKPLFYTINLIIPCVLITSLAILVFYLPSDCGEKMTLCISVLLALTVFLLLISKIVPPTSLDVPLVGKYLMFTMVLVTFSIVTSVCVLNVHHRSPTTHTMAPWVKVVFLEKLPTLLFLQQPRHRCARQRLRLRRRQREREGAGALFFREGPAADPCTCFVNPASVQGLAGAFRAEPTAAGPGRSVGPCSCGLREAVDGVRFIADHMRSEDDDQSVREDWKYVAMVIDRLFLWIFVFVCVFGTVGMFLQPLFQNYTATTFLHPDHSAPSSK
Sequence of nicotinic receptor (P09483 31-630): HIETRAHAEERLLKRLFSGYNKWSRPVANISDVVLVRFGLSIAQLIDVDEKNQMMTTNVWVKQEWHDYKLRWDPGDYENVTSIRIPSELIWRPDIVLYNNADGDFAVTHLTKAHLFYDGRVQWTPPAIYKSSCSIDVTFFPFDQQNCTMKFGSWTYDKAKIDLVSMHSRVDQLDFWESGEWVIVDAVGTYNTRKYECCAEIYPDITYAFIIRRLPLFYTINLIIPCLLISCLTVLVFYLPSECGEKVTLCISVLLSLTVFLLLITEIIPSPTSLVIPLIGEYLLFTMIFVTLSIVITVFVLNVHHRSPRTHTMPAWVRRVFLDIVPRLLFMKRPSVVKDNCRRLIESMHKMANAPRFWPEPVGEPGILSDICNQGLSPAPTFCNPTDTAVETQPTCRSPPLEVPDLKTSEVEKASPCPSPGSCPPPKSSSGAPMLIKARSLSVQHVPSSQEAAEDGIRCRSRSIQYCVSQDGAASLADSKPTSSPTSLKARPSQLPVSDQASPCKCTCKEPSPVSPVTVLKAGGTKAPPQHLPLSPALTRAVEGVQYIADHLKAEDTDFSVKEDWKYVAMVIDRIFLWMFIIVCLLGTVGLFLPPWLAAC

C[N+](C)(C)CCOC(N)=O [Carbachol]
IC50 [1]: 699 nM | potency less than nicotine [1]: about 18 fold

Clc1cccc(Cl)c1N=C1NCCN1 [Clonidine, clonidine]
delay intervals at which DMTS is improved [2]: improves DMTS performance to the greatest extent at medium delays | duration of DMTS improvement after administration [2]: at least 24 hr

C[n+]1ccccc1C=NOCc1ccccc1 [Compound 1a, O-Benzyl-N-(1-methyl-2-pyridinemethylene) hydroxylamine chloride]
comparative drug toxicity [3]: 1a>1b | mode of inhibition of AChE [4]: pure competitive inhibition

C[n+]1cccc(O)c1C=NOCc1ccccc1 [Compound 1b, O-Benzyl-N-(3-hydroxy-1-methyl-2-pyridinemethylene) hydroxylamine chloride]
comparative drug toxicity [3]: 1b>1c | mode of inhibition of AChE [4]: pure competitive inhibition

CON=Cc1c(O)ccc[n+]1C [Compound 1c, O-Methyl-N-(3-hydroxy-1-methyl-2-pyridinemethylene) hydroxylamine chloride]
% survival [5]: 0% | inhibition of human AChE [6]: did not inhibit either enzyme at concentrations up to 1 mM | LD50 at 24 h [7]: > 3200 µmol/kg | inhibition of electric eel AChE [8]: did not inhibit either enzyme at concentrations up to 1 mM

C[n+]1cccc(O)c1C=NOCc1ccc(Cl)cc1 [Compound 1d, O-(p-Chlorobenzyl)-N-(3-hydroxy-1-methyl-2-pyridinemethylene) hydroxylamine chloride]
mode of inhibition of AChE [4]: pure competitive inhibition

COc1ccc(CON=Cc2c(O)ccc[n+]2C)cc1 [Compound 1e, O-(p-Methoxybenzyl)-N-(3-hydroxy-1-methyl-2-pyridinemethylene) hydroxylamine chloride]
mode of inhibition of AChE [4]: pure competitive inhibition

C[n+]1cccc(O)c1C=NO [Compound 1f]
% survival [5]: 0% | inhibition of human AChE [6]: did not inhibit either enzyme at concentrations up to 1 mM | comparative drug toxicity [3]: small increase in toxicity | inhibition of electric eel AChE [8]: did not inhibit either enzyme at concentrations up to 1 mM

C[n+]1cc(O)ccc1C=NO [Compound 1g]
% survival [5]: 0% | comparative drug toxicity [3]: small increase in toxicity

C[n+]1cccc(O)c1C=NNC(=O)Nc1ccccc1.[Cl-] [Compound 3b, 3-Hydroxy-1-methyl-2-[[(N-phenylaminocarbonyl)hydrazono]methyl] pyridinium chloride]
mode of inhibition of AChE [4]: mixed-type inhibition; also recorded: noncompetitive kinetics

C[n+]1ccccc1C=NNC(=O)C[n+]1ccccc1 [Compound 5b, 2-(1-Methyl-2-pyridinemethylene)-1-[2-(1-pyridinium)acetyl] hydrazine dichloride]
mode of inhibition of AChE [4]: mixed-type inhibition; also recorded: At concentrations up to 75 μM, 5b acts as a noncompetitive inhibitor; also recorded: at higher concentrations, 5b is an uncompetitive inhibitor

CN1CCCC1c1cccnc1 (stereo not shown) [Nicotine]
improvement in DMTS performance [2]: 5-10 % points

CNC(=O)Oc1ccc2c(c1)[C@]1(C)CCN(C)[C@@H]1N2C [Physostigmine]
kobs/[I] (eel) [9]: 140000 M⁻¹ s⁻¹ | kobs/[I] (human) [10]: 19000 M⁻¹ s⁻¹ | binding to nicotinic receptors [1]: no selective binding to nicotinic receptors, even at mM concentrations | delay intervals at which DMTS is improved [2]: acts more evenly across short, medium and long delays | duration of DMTS response [2]: evokes responses only on the day of administration | improvement in DMTS performance [2]: 5-10 % points | kobs/[I] (literature value, footnote to eel column) [11]: 18500 M⁻¹ s⁻¹

CN(C)C(=O)Oc1ccc[n+](C)c1 [Pyridostigmine, pyridostigmine]
kobs/[I] (literature value, footnote to eel column) [11]: 843 M⁻¹ s⁻¹
